For 31 compounds, % fluorescent cells increase results are on record in PubChem BioAssay AID743396 (Broad Institute, 2014).

The source made the active and inactive calls.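 The calls were made as follows: active = fitted curve reaches a 40% rise in fluorescent cells at or below the top valid dose; inactive = opposite-direction effect, or the rest.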

One experiment is described as follows: autofluorescent compounds in non-GFP fibroblasts, dose response, artefact control for X-chromosome reactivation project, imaging, mTEFS fibroblasts, cherry-pick (AID 743396).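 Also: raw share of Hoechst-counted cells scored GFP positive without control normalization.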 The settings on record: mTEFS fibroblasts autofluorescence, GFP-channel imaging, 3 days; at 19.5 µM (top of the series).
Turning to `O=c1[nH]c(=O)n(CCC2=CCCCC2)c(O)c1/C=N/Nc1ccccc1`, the % fluorescent cells increase is 0% (inactive).

Still in this experiment, the particulars now being: mTEFS fibroblasts autofluorescence, GFP-channel imaging, 3 days; at 19.5 µM (top of the series); cells pretreated with 5-aza-dC.
`O=C(c1nc(SCc2ccc([N+](=O)[O-])cc2)n2ccccc12)C(F)(F)F`: the % fluorescent cells increase was 0.04% (inactive).

Turning to `CC(Sc1nnc(-c2ccncc2)n1C)C(=O)Nc1ccc(N2CCOCC2)cc1` (stereo unspecified), the % fluorescent cells increase is 0% (inactive).

For `COc1ccccc1-c1cc(C(=O)N2CCCc3ccccc32)no1`, the % fluorescent cells increase was 0.006% (inactive).

In the case of `CCCN(C)C[C@@H]1OCc2cnnn2CCCC(=O)N([C@H](C)CO)C[C@H]1C`, the % fluorescent cells increase is 0.007% (inactive).

For the compound `CCSc1nnc(NC(=O)c2cc(OC)c(OC)c(OC)c2)s1`, the % fluorescent cells increase was 0% (inactive).

For the compound `COC(=O)c1c(NC(=O)c2ccccc2)sc2c1CC(C)(C)NC2(C)C`, the % fluorescent cells increase was -0.011% (inactive).

As for `COC(=O)c1cnn(-c2ccccc2)c1N`, the % fluorescent cells increase was 0.008% (inactive).

Turning to `CCCCn1nnnc1C(c1ccccc1)N1CCN(c2ccc(C)cc2)CC1` (stereo unspecified), the % fluorescent cells increase was -0.003% (inactive).

As to `CCOc1ccc(C(=O)c2cc([N+](=O)[O-])ccc2N2CCOCC2)cc1`, the % fluorescent cells increase was 0% (inactive).

Regarding `CC(O)(c1ccccc1)c1nc(-c2ccncc2)cs1` (stereo unspecified), the % fluorescent cells increase was 0.38% (inactive).

Turning to `COc1ccccc1NC(=S)N(CCCN1CCOCC1)Cc1cccs1`, the % fluorescent cells increase was -0.007% (inactive).

Take `CCn1nc(C)cc1-c1nnc(Sc2ncc([N+](=O)[O-])s2)n1C`: the % fluorescent cells increase was 0% (inactive).

Take `O=C1c2ccc3c4c(ccc(c24)C(=O)N1c1cccc(O)c1)C(=O)N(c1cccc(O)c1)C3=O`: the % fluorescent cells increase was -0.003% (inactive).

`CC(C)(C)NC(=O)C(c1c[nH]c2ccccc12)N(C(=O)Cn1nnc(-c2ccc(Cl)cc2)n1)c1ccccc1F` (stereo unspecified): the % fluorescent cells increase was 0.176% (inactive).

As to `COc1ccc(CN(C)Cc2nc(Cc3ccccc3Cl)no2)cc1OC`, the % fluorescent cells increase is 0.025% (inactive).

In the case of `COc1ccc(/C=C\c2onc(C)c2S(=O)(=O)N2CCC(C(=O)NCc3ccco3)CC2)cc1`, the % fluorescent cells increase is 0.029% (inactive).

Take `COc1ccccc1OCCOc1ccc(/C=C2\C(=N)N3N=C(S(C)(=O)=O)SC3=NC2=O)cc1`: the % fluorescent cells increase was 0% (inactive).

`CCOC(=O)Nc1cc2c(c(N)n1)N=C(c1ccccc1)CN2`: the % fluorescent cells increase is 0.925% (inactive).

Turning to `O=C1N(c2ccccc2)C[C@@H]2C[C@@H](c3cc4ccccc4o3)N3CCC[C@@]123`, the % fluorescent cells increase was -0.007% (inactive).

In the case of `CCOC(=O)[C@]12CCC=C1N(Cc1ccccc1)C(=O)[C@H](CC(=O)N1CCSCC1)C2`, the % fluorescent cells increase was 0.038% (inactive).

In the case of `CC(C)(C=O)C1=CC(=O)c2ccccc2C1=O`, the % fluorescent cells increase was 0% (inactive).

Take `COc1ccc(C2=NOC3(CC(=O)N(c4ccc(F)cc4)C3=O)C2)cc1` (stereo unspecified): the % fluorescent cells increase was 0.016% (inactive).

For `O=C1Nc2ccccc2/C1=C/c1ccccc1Cl`, the % fluorescent cells increase was 0% (inactive).

For the compound `CN(C)CCCNC(=O)/C(=C\c1ccc(-c2ccc(Br)cc2)o1)NC(=O)c1ccccc1`, the % fluorescent cells increase is -0.006% (inactive).

For the compound `C[C@@H]1CN(C)C(=O)Cc2cc(N(C)C)ccc2O[C@@H]1CN(C)S(C)(=O)=O`, the % fluorescent cells increase is 0.125% (inactive).

As for `CC1=C(Cl)C2=NS(=O)(=O)CCN2C=C1Cl`, the % fluorescent cells increase was 1.51% (inactive).

In the case of `Cc1nn(-c2ccccc2)c(N)c1N=O`, the % fluorescent cells increase is 0% (inactive).

Take `Cc1ccc(/C=C/C(=O)N2CCN(S(=O)(=O)/C=C/c3ccccc3)CC2)o1`: the % fluorescent cells increase was 0.017% (inactive).

As to `CC(=NNc1ccc2ccccc2n1)c1ccccn1`, the % fluorescent cells increase is 15.8% (inactive).

In the case of `CCOC(=O)C1=C(C)NC(=S)NC1/C=C/c1ccccc1` (stereo unspecified), the % fluorescent cells increase was -0.004% (inactive).
